“Also recorded” adds a separate entry of the source. Read-outs that look alike come from different tables or passages of the source.
Columns and labels:
[1] = parameters: method as in PMID 33089874; conditions: following intravenous administration; ref [14]; cited from earlier work
[2] = Phase 1 drug-drug interaction study: single-dose pevonedistat plasma PK in the absence or presence of rifampin; type: in vivo, human; conditions: for AUC(0-t) / AUC(0-inf) / Cmax / clearance / Vd / half-life: human, plasma; for clearance: 50 mg/m2, plasma clearance, read-out: CL geometric mean (CV) (converted); for Vd: read-out: Vss geometric mean (CV); for half-life: read-out: t1/2z mean (SD) (converted)
Experimental: This was an open-label, multi-center study in adult patients with advanced solid tumors (NCT03486314). Eligible patients received a single 50 mg/m^2 pevonedistat dose via a 1-h infusion on Days 1 and 10, and daily oral dosing of rifampin 600 mg Days 3–11. Serial blood samples for the measurement of pevonedistat plasma concentrations were collected over 48 h following pevonedistat dosing. Pevonedistat PK parameters and ratios of geometric means for maximal plasma concentration (Cmax) and area under the plasma concentration versus time curve from time 0 to infinity (AUC0–inf) were calculated in the presence of rifampin (Day 10) and in reference to the absence of rifampin (Day 1), with associated 90% confidence intervals (CI) estimated using analysis of variance.
Serial blood samples for measuring pevonedistat concentrations were collected at intervals from 0 (predose) to 48 h after the single doses of pevonedistat on Day 1 and Day 10. Plasma samples were analyzed for pevonedistat concentrations using a previously reported validated liquid chromatography/mass spectrometry (LC–MS/MS) assay.
Pevonedistat PK parameters were calculated by noncompartmental analysis of the pevonedistat plasma concentration–time data using Phoenix WinNonlin version 8.1 (Certara, Princeton, NJ). The following single-dose PK parameters were derived: Cmax, AUC0-inf, AUC from time 0 to the last quantifiable concentration (AUC0–last), terminal disposition phase half-life (t1/2), clearance (CL), and volume of distribution at steady state (Vss).
(§1) Pevonedistat PK was assessed in all patients who received the protocol-specified pevonedistat and rifampin doses in Part A, and had sufficient concentration–time data to permit reliable estimation of PK parameters (PK-evaluable population). PK data were summarized using descriptive statistics. For assessment of the effect of rifampin on pevonedistat PK, the ratios of geometric mean Cmax, AUClast and AUCinf of pevonedistat in the presence of rifampin on Day 10 versus in the absence of rifampin on Day 1 and associated 90% CI were calculated based on analysis of variance. Estimates for each PK parameter were obtained using a mixed effects model of log(PK parameter) with fixed terms for the rifampin effect and random terms for patient. Safety was assessed in all patients who received at least one dose of pevonedistat, and TEAEs were coded according to the Medical Dictionary for Regulatory Activities (MedDRA), version 20.0.

[3] = parameters: method as in PMID 30845347; conditions: strong CYP3A/P-glycoprotein inhibitor itraconazole; ref [16]; cited from earlier work
[4] = parameters: method as in PMID 31355467; conditions: ref [15], cited from earlier work
[5] = Safety: treatment-emergent adverse events (NCI CTCAE v4.03), safety population; type: in vivo, human; conditions: N=20
Experimental: Safety was assessed by incidence and severity of treatment-emergent adverse events (TEAEs), vital signs, physical examinations, electrocardiograms, and clinical laboratory tests, and toxicities were graded according to the National Cancer Institute Common Terminology Criteria for Adverse Events (NCI CTCAE), version 4.03.
as §1

[6] = ref [10]–[13], cited from earlier work
[7] = iv, 50 mg/m2, single 50 mg/m^2 IV, in the absence of rifampin (Day 1), N=20
[8] = iv, 50 mg/m2, single 50 mg/m^2 IV, in the presence of rifampin (Day 10), N=17
[9] = presence of rifampin (Day 10) vs absence (Day 1)
[10] = most common TEAEs (≥ 15% of patients)
[11] = single dose 50 mg/m^2 ± rifampin
[12] = single dose 50 mg/m^2 ± rifampin, listed as Pevonedistat

Compound: NS(=O)(=O)OC[C@@H]1C[C@@H](n2ccc3c(N[C@H]4CCc5ccccc54)ncnc32)C[C@@H]1O [pevonedistat, Pevonedistat]
- whole-blood-to-plasma ratio [1]: 40
- geometric mean AUClast in the presence of rifampin as % of that in the absence ([2]; Day 10 vs Day 1, 90% CI 68.4%–90.1%): 78.5%
- geometric mean AUC∞ (AUC0–inf) in the presence of rifampin as % of that in the absence ([2]; Day 10 vs Day 1, 90% CI 69.2%–90.2%): 79%
- geometric mean Cmax in the presence of rifampin as % of that in the absence ([2]; Day 10 vs Day 1, 90% CI 79.2%–117%): 96.2%
- decrease in pevonedistat systemic exposure with rifampin ([2]; coadministration with rifampin): approximately 20%
- AUC(0-t) ([2]; intravenous, 50 mg/m^2, mixed-effects model, in the absence of rifampin, N=20, read-out: AUClast LS mean): 2990 ng·h/mL
- AUC(0-inf) ([2]; intravenous, 50 mg/m^2, mixed-effects model, in the absence of rifampin, N=20, read-out: AUC∞ LS mean): 3030 ng·h/mL
- Cmax ([2]; intravenous, 50 mg/m^2, mixed-effects model, in the absence of rifampin, N=20, read-out: Cmax LS mean): 602 ng/mL
- AUC(0-t) ([2]; intravenous, mixed-effects model, in the presence of rifampin, N=17, read-out: AUClast LS mean): 2340 ng·h/mL
- AUC(0-inf) ([2]; intravenous, mixed-effects model, in the presence of rifampin, N=17, read-out: AUC∞ LS mean): 2390 ng·h/mL
- Cmax ([2]; intravenous, mixed-effects model, in the presence of rifampin, N=17, read-out: Cmax LS mean): 579 ng/mL
- clearance ([2]; iv, single 50 mg/m^2 IV, in the absence of rifampin (Day 1), N=20): 550 mL/min
- clearance ([2]; iv, single 50 mg/m^2 IV, in the presence of rifampin (Day 10), N=17): 692 mL/min
- AUC(0-t) ([2]; iv, 50 mg/m2, single 50 mg/m^2 IV, in the absence of rifampin (Day 1), N=20, read-out: AUClast geometric mean (CV)): 2990 ng·h/mL
- AUC(0-inf) ([2]; iv, 50 mg/m2, single 50 mg/m^2 IV, in the absence of rifampin (Day 1), N=20, read-out: AUC∞ geometric mean (CV)): 3030 ng·h/mL
- Vd [2, 7]: 278 L
- half-life [2, 7]: ~7 h
- AUC(0-t) ([2]; iv, 50 mg/m2, single 50 mg/m^2 IV, in the presence of rifampin (Day 10), N=17, read-out: AUClast geometric mean (CV)): 2330 ng·h/mL
- AUC(0-inf) ([2]; iv, 50 mg/m2, single 50 mg/m^2 IV, in the presence of rifampin (Day 10), N=17, read-out: AUC∞ geometric mean (CV)): 2370 ng·h/mL
- Vd [2, 8]: 265 L
- half-life [2, 8]: 5.7 h
- Cmax ([2]; single 50 mg/m^2 1-h IV infusion, in the absence of rifampin (Day 1), N=20, read-out: Cmax geometric mean (CV)): 602 ng/mL
- Cmax ([2]; single 50 mg/m^2 1-h IV infusion, in the presence of rifampin 600 mg daily (Day 10), N=17, read-out: Cmax geometric mean (CV)): 564 ng/mL
- CL geometric mean (CV) ([2]; plasma clearance, single 50 mg/m^2 IV, in the absence of rifampin (Day 1), N=20): 33.1 (31.2%) L/h
- AUClast LS mean ratio (90% CI) [2, 9]: 0.785 (0.684–0.901)
- AUC∞ LS mean ratio (90% CI) [2, 9]: 0.790 (0.692–0.902)
- Cmax LS mean ratio (90% CI) [2, 9]: 0.962 (0.792–1.17)
- t1/2z mean (SD) ([2]; single 50 mg/m^2 IV, in the absence of rifampin (Day 1), N=20): 7.4 (1.4) h
- effect of itraconazole on pevonedistat systemic exposure / PK [3]: no clinically relevant effects; also recorded: did not result in clinically meaningful increase
- PK dose linearity ([4]; dose range 25–278 mg/m^2): linear
- impact of age, sex, tumor type, mild or moderate renal impairment (creatinine clearance ≥ 30 mL/min) on PK [4]: no impact
- inter-patient variability in pevonedistat clearance [4]: approximately 30%
- TEAE of hypersensitivity leading to interruption of study drug or permanent withdrawal, patients [5]: Two
- TEAE decreased appetite, patients [5, 10]: 4 [20%] n [%]
- TEAE diarrhea, patients [5, 10]: 3 [15%] n [%]
- TEAE fatigue, patients [5, 10]: 3 [15%] n [%]
- Drug-related TEAEs, Events [5, 11]: 14
- Grade ≥ 3 TEAEs, Events [5, 11]: 17
- Grade ≥ 3 drug related TEAEs, Events [5, 11]: 3
- Grade ≥ 3 drug related TEAEs, Patients (%) [5, 11]: 3 (15%) n (%)
- On-study deaths, Events [5, 11]: 1
- Serious TEAEs leading to study drug discontinuation, Events [5, 11]: 1
- Serious TEAEs leading to study drug discontinuation, Patients (%) [5, 11]: 1 (5.0) n (%)
- Serious TEAEs, Events [5, 11]: 4
- Serious TEAEs, Patients (%) [5, 11]: 3 (15%) n (%)
- Serious TEAEs, drug related, Events [5, 11]: 1
- Serious TEAEs, drug related, Patients (%) [5, 11]: 1 (5.0) n (%)
- TEAEs leading to study drug discontinuation, Events [5, 11]: 1
- TEAEs leading to study drug discontinuation, Patients (%) [5, 11]: 1 (5.0) n (%)
- TEAEs leading to study drug dose delayed, Events [5, 11]: 0
- TEAEs leading to study drug dose delayed, Patients (%) [5, 11]: 0 n (%)
- TEAEs leading to study drug dose interruption, Events [5, 11]: 0
- TEAEs leading to study drug dose interruption, Patients (%) [5, 11]: 0 n (%)
- TEAEs leading to study drug dose reduction, Events [5, 11]: 0
- TEAEs leading to study drug dose reduction, Patients (%) [5, 11]: 0 n (%)
- TEAEs, Events [5, 11]: 82
- TEAEs, Patients (%) [5, 11]: 16 (80%) n (%)
- Drug-related TEAEs, Patients (%) [5, 12]: 9 (45.0) n (%)
- Grade ≥ 3 TEAEs, Patients (%) [5, 12]: 7 (35.0) n (%)
- Grade ≥ 3 drug related TEAEs, Patients (%) [5, 12]: 3 (15.0) n (%)
- On-study deaths, Patients (%) [5, 12]: 1 (5.0) n (%)
- Serious TEAEs, Patients (%) [5, 12]: 3 (15.0) n (%)
- TEAEs, Patients (%) [5, 12]: 16 (80.0) n (%)
- recommended dose for clinical investigation as a single agent ([6]; Days 1, 3 and 5 in 21-day cycles): 50 mg/m^2
- maximum tolerated dose (MTD) ([6]; in combination with azacitidine): 20 mg/m^2
- maximum tolerated dose (MTD) ([6]; in combination with carboplatin plus paclitaxel): 20 mg/m^2
- maximum tolerated dose (MTD) ([6]; in combination with docetaxel): 25 mg/m^2
